Patent publication US4906624A, “6-(((Substituted)pyridin-3-yl)alkyl)-and alkenyl)-tetrahydro-4-hydroxypyran-2-one inhibitors of cholesterol biosynthesis” (Warner-Lambert Company, priority 1988, dated 1990)
Structures can show the parent of a compound that is named as a salt.

Experiments:
Cholesterol Synthesis = assay: AICS screen: inhibition of cholesterol synthesis in rats (plasma [14C]cholesterol after sodium [1-14C]-acetate); format: in vivo; settings: Rattus norvegicus, 50 min; 1.0 mg/kg, single dose, oral gavage, male Sprague-Dawley rats fed 5% cholestyramine; acetate one hour after drug, blood after 50 minutes
Description: The ability of compounds of the present invention to inhibit the biosynthesis of cholesterol was also measured by a method (designated AICS screen) which utilizes the procedure described by A. W. Alberts et al, Proc. Natl. Acad. Sci., (1980), 77, pp 3957-3961.
In this method male Sprague-Dawley rats (200 g body weight) previously fed 5% cholestyramine for three days were randomly divided into groups (N=5/group) and given a single dose of vehicle (controls) or compound by an oral gavage at the indicated doses. One hour after drug dosing, all rats were injected intraperitoneally with sodium[1-^14 C]-acetate (18.75 μCi/rat in 0.2 ml saline). After 50 minutes, blood samples were taken, plasma obtained by centrifugation, and plasma [^14 C]cholesterol measured after saponification and extraction.

[1] = tested on: sterol synthesis (cholesterol biosynthesis) in rat liver homogenate; assay: CSI screen: inhibition of sterol/cholesterol synthesis (14C-acetate incorporation into nonsaponifiable lipid) by rat liver homogenate; format: biochemical; settings: one-hour period, rats fed 5% cholestyramine for four days, 60 min, read-out: CSI/IC50 (concentration required for 50% inhibition of sterol synthesis)
Description: The ability of compounds of the present invention to inhibit the biosynthesis of cholesterol was measured by a method (designated CSI screen) which utilizes the procedure described by R. E. Dugan, et al, Archiv. Biochem. Biophys., (1972), 152, 21-27. In this method, the level of HMG-CoA enzyme activity in standard laboratory rats is increased by feeding the rats a chow diet containing 5% cholestyramine for four days, after which the rats are sacrificed.
The rat livers are homogenized, and the incorporation of […] into nonsaponifiable lipid by the rat liver homogenate is measured. The micromolar concentration of compound required for 50% inhibition of sterol synthesis over a one-hour period is measured, and expressed as an IC50 value.

Structure (SMILES) | change in vivo at 1 mg/kg (Cholesterol Synthesis) [%] | IC50 [1] [nM]
Cc1cc(-c2ccc(F)cc2)c(/C=C/[C@@H](O)C[C@@H](O)CC(=O)O)c(C(C)C)n1 (relative stereo) [Example 21, [R*,S*-(E)]-7-[4-(4-fluorophenyl)-6-methyl-2-(1-methylethyl)-3-pyridinyl]-3,5-dihydroxy-6-heptenoic acid, hemicalcium salt] | -67 | –
Cc1cc(C)c(/C=C/[C@@H](O)C[C@@H](O)CC(=O)O)c(-c2ccc(F)cc2)n1 (relative stereo) [Example 29, [R*,S*-(E)]-7-[2-(4-fluorophenyl)-4,6-dimethyl-3-pyridinyl]-3,5-dihydroxy-6-heptenoic acid, monosodium salt] | – | 50
CCc1nc(CC)c(CO)c(-c2ccc(F)cc2)c1/C=C/[C@@H]1C[C@@H](O)CC(=O)O1 (relative stereo) [Example 36] | -68 | –
Cc1nc(C)c(/C=C/[C@@H](O)C[C@@H](O)CC(=O)O)c(-c2ccc(F)cc2)c1C#N (relative stereo) [Example 6, [R*,S*(E)]-7-[5-Cyano-4-(4-fluorophenyl)-2,6-dimethyl-3-pyridinyl]-3,5-dihydroxy-6-heptenoic acid, sodium salt] | – | 62
Cc1cc(-c2ccc(F)cc2)c(/C=C/[C@@H]2C[C@@H](O)CC(=O)O2)c(C(C)C)n1 (relative stereo) [Example 19, [4α,6β(E)]-6-[2-[4-(4-fluorophenyl)-6-methyl-2-(1-methylethyl)-3-pyridinyl]ethenyl]tetrahydro-4-hydroxy-2H-pyran-2-one] | -72 | –
O=C(O)C[C@H](O)C[C@H](O)/C=C/c1c(-c2ccc(F)cc2)cc(C(F)F)nc1C(F)(F)F (relative stereo) [Example 25, [R*,S*-(E)]-7-[6-(difluoromethyl)-4-(4-fluorophenyl)-2-(trifluoromethyl)-3-pyridinyl]-3,5-dihydroxy-6-heptenoic acid, monosodium salt] | – | 71
COC(=O)c1c(C(C)C)nc(C(C)C)c(/C=C/[C@@H]2C[C@@H](O)CC(=O)O2)c1-c1ccc(F)cc1 (relative stereo) [Example 13, [2α,4β-(E)]-4-(4-fluorophenyl)-2,6-bis(1-methylethyl)-5-[2-(tetrahydro-4-hydroxy-6-oxo-2H-pyran-2-yl)ethenyl]-3-pyridinecarboxylic acid, methyl ester] | -67 | –
Cc1cc(-c2ccccc2)c(/C=C/[C@@H](O)C[C@@H](O)CC(=O)O)c(C)n1 (relative stereo) [Example 3, [R*,S*(E)]-7-(2,6-dimethyl-4-phenyl-3-pyridinyl)-3,5-dihydroxy-6-heptenoicacid, sodium salt] | – | 230
CCCNC(=O)c1c(C(C)C)nc(C(C)C)c(/C=C/[C@@H](O)C[C@@H](O)CC(=O)O)c1-c1ccc(F)cc1 (relative stereo) [Example 33, [R*,S*-(E)]-7-[4-(4-fluorophenyl)-2,6-bis(1-methylethyl)-5-[(propylamino)carbonyl]-3-pyridinyl]-3,5-dihydroxy-6-heptenoic acid, monosodium salt] | – | 20
CC(C)c1cc(-c2ccc(F)cc2)c(/C=C/[C@@H](O)C[C@@H](O)CC(=O)O)c(C(C)C)n1 (relative stereo) [Example 16, [R*,S*(E)]-7-[4-(4-fluorophenyl)-2,6-bis(1-methylethyl)-3-pyridinyl]-3,5-dihydroxy-6-heptenoic acid, monosodium salt] | – | 30
CCOC(=O)c1c(C)nc(C)c(/C=C/[C@@H](O)C[C@@H](O)CC(=O)O)c1-c1ccc(F)cc1 (relative stereo) [Example 12, [R*,S*-(E)]-5-(6-carboxy-3,5-dihydroxy-1-hexenyl)-4-(4-fluorophenyl)-2,6-dimethyl-, 3-ethyl ester, 3-pyridinecarboxylic acid, monosodium salt] | – | 140
Cc1cc(-c2ccc(F)cc2)c(/C=C/[C@@H](O)C[C@@H](O)CC(=O)O)c(C)n1 (relative stereo) [Example 8, [R*,S*(E)]-7-[4-(4-Fluorophenyl)-2,6-dimethyl-3-pyridinyl]-3,5-dihydroxy-6-heptenoic acid, sodium salt] | – | 72
CCc1nc(CC)c(C(=O)OC)c(-c2ccc(F)cc2)c1/C=C/[C@@H](O)C[C@@H](O)CC(=O)O (relative stereo) [Example 35, [R*,S*-(E)]-5-(6-carboxy-3,5-dihydroxy-1-hexenyl)-2,6-diethyl-4-(4-fluorophenyl)-, methyl ester, 3-pyridinecarboxylic acid, monosodium salt] | – | 44
COC(=O)c1c(C(C)C)nc(C)c(/C=C/[C@@H](O)C[C@@H](O)CC(=O)O)c1-c1ccc(F)cc1 (relative stereo) [Example 10, [R*,S*-(E)]-5-(6-carboxy-3,5-dihydroxy-1-hexenyl)-4-(4-fluorophenyl)-6-methyl-2-(1-methylethyl)-, 3-methyl ester, 3-pyridinecarboxylic acid, monosodium salt] | – | 70
Cc1cc(-c2ccccc2)c(/C=C/[C@@H]2C[C@@H](O)CC(=O)O2)c(C)n1 (relative stereo) [Example 2, [4α,6β(E)]-6-[2-(2,6-Dimethyl-4-phenyl-3-pyridinyl)ethenyl]tetrahydro-4-hydroxy-2H-pyran-2-one] | – | 180
C=Cc1c(C)nc(C(C)C)c(/C=C/[C@@H](O)C[C@@H](O)CC(=O)O)c1-c1ccc(F)cc1 (relative stereo) [Example 41, [R*,S*-(E)]-7-[5-ethenyl-4-(4-fluorophenyl)-6-methyl-2-(1-methylethyl)-3-pyridinyl]-3,5-dihydroxy-6-heptenoic acid, monosodium salt] | – | 11
CCc1cc(-c2ccc(F)cc2)c(/C=C/[C@@H](O)C[C@@H](O)CC(=O)O)c(CC)n1 (relative stereo) [Example 27, [R*,S*-(E)]-7-[2,6-diethyl-4-4-(fluorophenyl)-3-pyridinyl]-3,5-dihydroxy-6-heptenoic acid, monosodium salt] | – | 32
COc1c(C)nc(C(C)C)c(/C=C/[C@@H](O)C[C@@H](O)CC(=O)O)c1-c1ccc(F)cc1 (relative stereo) [Example 39, [R*,S*-(E)]-7-[4-(4-fluorophenyl)-5-methoxy-6-methyl-2-(1-methylethyl)-3-pyridinyl]-3,5-dihydroxy-6-heptenoic acid, monosodium salt] | – | 8
Cc1cc(-c2ccc(F)cc2)c(/C=C/[C@@H](O)C[C@@H](O)CC(=O)O)c(C(F)(F)F)n1 (relative stereo) [Example 23, [R*,S*-(E)]-7-[4-(4-fluorophenyl)-6-methyl-2-(trifluoromethyl)-3,5-dihydroxy-6-heptenoic acid, monosodium salt] | – | 50
COC(=O)c1c(C(C)C)nc(C(C)C)c(/C=C/[C@@H](O)C[C@@H](O)CC(=O)O)c1-c1ccc(F)cc1 (relative stereo) [Example 14, [R*,S*-(E)]-5-(6-carboxy-3,5-dihydroxy-1-hexenyl)-4-(4-fluorophenyl)-2,6-bis-1-methylethyl)-, methyl ester-3-pyridinecarboxylic acid, sodium salt] | – | 79
Cc1nccc(-c2ccccc2)c1CC[C@H]1C[C@H](O)CC(=O)O1 (relative stereo) [Example 4, trans-Tetrahydro-4-hydroxy-6-[2-(2-methyl-4-phenyl-3-pyridinyl)ethyl]-2H-pyran-2-one] | – | 420
Cc1nccc(-c2ccccc2)c1/C=C/[C@@H]1C[C@@H](O)CC(=O)O1 (relative stereo) [Example 1, [4α,6β(E)]-Tetrahydro-4-hydroxy-6-[2-(2-methyl-4-phenyl-3-pyridinyl)ethenyl]-2H-pyran-2-one] | – | 360
Cc1cc(-c2ccc(F)cc2)c(/C=C/[C@@H]2C[C@@H](O)CC(=O)O2)c(C)n1 (relative stereo) [Example 7, [4α,6β(E)]-6-[2-[4-(4-Fluorophenyl)-2,6-dimethyl-3-pyridinyl]ethenyl]tetrahydro-4-hydroxy-2H-pyran-2-one] | – | 68
Cc1cc(-c2ccc(F)cc2)c(/C=C/[C@@H](O)C[C@@H](O)CC(=O)O)c(C(C)C)n1 (relative stereo) [Example 20, [R*,S*-(E)]-7-[4-(4-fluorophenyl)-6-methyl-2-(1-methylethyl)-3-pyridinyl-3,5-dihydroxy-6-heptenoic acid, sodium salt] | – | 16
CC(C)c1nc(-c2ccccc2)cc(-c2ccc(F)cc2)c1/C=C/[C@@H](O)C[C@@H](O)CC(=O)O (relative stereo) [Example 31, [R*,S*-(E)]-7-[2-[4-(4-fluorophenyl)-2-(1-methylethyl)-6-phenyl-3-pyridinyl]ethenyl]-3,5-dihydroxy-6-heptenoic acid, monosodium salt] | – | 58
CCc1nc(CC)c(CO)c(-c2ccc(F)cc2)c1/C=C/[C@@H](O)C[C@@H](O)CC(=O)O (relative stereo) [Example 37, [R*,S*-(E)]-7-[2,6-diethyl-4-(4-fluorophenyl)-5-(hydroxymethyl)-3-pyridinyl]-3,5-dihydroxy-6-heptenoic acid, monosodium salt] | – | 24
